In patent US9175003B2, “Substituted azoanthracene derivatives and intermediates for preparation thereof” (TransTech Pharma, LLC, priority 2009, dated 2015):
pEC50: −log10 of the molar value.

biological target: human GLP-1 receptor (Homo sapiens (Human), UniProt P43220); settings: read-out: Mean EC50; cAMP, HTRF detection, 30 min at 37° C., HEK-293 cells expressing cloned human GLP-1 receptor
Sequence (P43220 24-463): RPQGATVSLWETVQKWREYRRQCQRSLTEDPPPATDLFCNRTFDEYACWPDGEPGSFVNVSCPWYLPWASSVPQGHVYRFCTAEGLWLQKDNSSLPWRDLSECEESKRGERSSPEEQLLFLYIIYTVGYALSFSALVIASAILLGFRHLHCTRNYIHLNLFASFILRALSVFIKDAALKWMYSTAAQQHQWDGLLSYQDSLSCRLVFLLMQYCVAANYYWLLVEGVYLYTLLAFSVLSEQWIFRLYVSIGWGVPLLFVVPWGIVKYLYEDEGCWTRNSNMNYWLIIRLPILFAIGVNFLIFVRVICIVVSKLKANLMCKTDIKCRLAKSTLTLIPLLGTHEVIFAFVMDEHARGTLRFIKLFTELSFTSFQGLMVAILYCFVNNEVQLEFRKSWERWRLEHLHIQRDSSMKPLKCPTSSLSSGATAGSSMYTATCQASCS

| SMILES | pEC50 |
| --- | --- |
| Cc1nccc(Oc2ccc(C[C@H](NC(=O)[C@@H]3Cc4cc5c(cc4CN3C(=O)NC3CCCCC3)O[C@@H](c3ccc(OCc4ccc(Cl)c(Cl)c4)cc3)CO5)C(=O)O)cc2)c1C [Example 344, (S)-2-({(3S,8S)-7-Cyclohexylcarbamoyl-3-[4-(3,4-dichloro-benzyloxy)-phenyl]-2,3,6,7,8,9-hexahydro-[1,4]dioxino[2,3-g]isoquinoline-8-carbonyl}-amino)-3-[4-(2,3-dimethyl-pyridin-4-yloxy)-phenyl]-propionic acid] | 6.57 |
| Cc1cccc(NC(=O)N2Cc3cc4c(cc3C[C@H]2C(=O)N[C@@H](Cc2ccc(Oc3ccnc(C)c3C)cc2)C(=O)O)OC[C@H](c2ccc(OCc3ccc(Cl)c(Cl)c3)cc2)O4)c1 [Example 345, (S)-2-({(3S,8S)-3-[4-(3,4-Dichloro-benzyloxy)-phenyl]-7-m-tolylcarbamoyl-2,3,6,7,8,9-hexahydro-[1,4]dioxino[2,3-g]isoquinoline-8-carbonyl}-amino)-3-[4-(2,3-dimethyl-pyridin-4-yloxy)-phenyl]-propionic acid] | 6.59 |
| Cc1nccc(Oc2ccc(C[C@H](NC(=O)[C@@H]3Cc4cc5c(cc4CN3C(=O)NC3CCC3)O[C@@H](c3ccc(OCc4ccc(Cl)c(Cl)c4)cc3)CO5)C(=O)O)cc2)c1C [Example 347, (S)-2-({(3S,8S)-7-Cyclobutylcarbamoyl-3-[4-(3,4-dichloro-benzyloxy)-phenyl]-2,3,6,7,8,9-hexahydro-[1,4]dioxino[2,3-g]isoquinoline-8-carbonyl}-amino)-3-[4-(2,3-dimethyl-pyridin-4-yloxy)-phenyl]-propionic acid] | 6.50 |
| Cc1nccc(Oc2ccc(C[C@H](NC(=O)[C@@H]3Cc4cc5c(cc4CN3C(=O)NC(C)(C)c3ccccc3)O[C@@H](c3ccc(OCc4ccc(Cl)c(Cl)c4)cc3)CO5)C(=O)O)cc2)c1C [Example 348, (S)-2-{[(3S,8S)-3-[4-(3,4-Dichloro-benzyloxy)-phenyl]-7-(1-methyl-1-phenyl-ethylcarbamoyl)-2,3,6,7,8,9-hexahydro-[1,4]dioxino[2,3-g]isoquinoline-8-carbonyl]-amino}-3-[4-(2,3-dimethyl-pyridin-4-yloxy)-phenyl]-propionic acid] | 6.58 |
| CCC(C)(C)NC(=O)N1Cc2cc3c(cc2C[C@H]1C(=O)N[C@@H](Cc1ccc(Oc2ccnc(C)c2C)cc1)C(=O)O)OC[C@H](c1ccc(OCc2ccc(Cl)c(Cl)c2)cc1)O3 [Example 350, (S)-2-{[(3S,8S)-3-[4-(3,4-Dichloro-benzyloxy)-phenyl]-7-(1,1-dimethyl-propylcarbamoyl)-2,3,6,7,8,9-hexahydro-[1,4]dioxino[2,3-g]isoquinoline-8-carbonyl]-amino}-3-[4-(2,3-dimethyl-pyridin-4-yloxy)-phenyl]-propionic acid] | 6.67 |
| Cc1nccc(Oc2ccc(C[C@H](NC(=O)[C@@H]3Cc4cc5c(cc4CN3C(=O)NC3(C)CCC3)O[C@@H](c3ccc(OCc4ccc(Cl)c(Cl)c4)cc3)CO5)C(=O)O)cc2)c1C [Example 351, (S)-2-{[(3S,8S)-3-[4-(3,4-Dichloro-benzyloxy)-phenyl]-7-(1-methyl-cyclobutylcarbamoyl)-2,3,6,7,8,9-hexahydro-[1,4]dioxino[2,3-g]isoquinoline-8-carbonyl]-amino}-3-[4-(2,3-dimethyl-pyridin-4-yloxy)-phenyl]-propionic acid] | 6.96 |
| Cc1nccc(Oc2ccc(C[C@H](NC(=O)[C@@H]3Cc4cc5c(cc4CN3C(=O)NC3CCC(F)(F)CC3)O[C@@H](c3ccc(OCc4ccc(Cl)c(Cl)c4)cc3)CO5)C(=O)O)cc2)c1C [Example 352, (S)-2-{[(3S,8S)-3-[4-(3,4-Dichloro-benzyloxy)-phenyl]-7-(4,4-difluoro-cyclohexylcarbamoyl)-2,3,6,7,8,9-hexahydro-[1,4]dioxino[2,3-g]isoquinoline-8-carbonyl]-amino}-3-[4-(2,3-dimethyl-pyridin-4-yloxy)-phenyl]-propionic acid] | 6.47 |
| Cc1nc(C(=O)N2Cc3cc4c(cc3C[C@H]2C(=O)N[C@@H](Cc2ccc(-c3ccnc(C)c3C)cc2)C(=O)O)OC[C@H](c2ccc(OCc3cc(F)cc(F)c3)cc2)O4)c(C)o1 [Example 357, (S)-2-{[(3S,8S)-3-[4-(3,5-Difluoro-benzyloxy)-phenyl]-7-(2,5-dimethyl-oxazole-4-carbonyl)-2,3,6,7,8,9-hexahydro-[1,4]dioxino[2,3-g]isoquinoline-8-carbonyl]-amino}-3-[4-(2,3-dimethyl-pyridin-4-yl)-phenyl]propionic acid] | 7.72 |
| Cc1nccc(-c2ccc(C[C@H](NC(=O)[C@@H]3Cc4cc5c(cc4CN3C(=O)N[C@H](C)c3ccccc3)O[C@@H](c3ccc(OCc4cc(F)cc(F)c4)cc3)CO5)C(=O)O)cc2)c1C [Example 365, (S)-2-{[(3S,8S)-3-[4-(3,5-Difluoro-benzyloxy)-phenyl]-7-((R)-1-phenyl-ethylcarbamoyl)-2,3,6,7,8,9-hexahydro-[1,4]dioxino[2,3-g]isoquinoline-8-carbonyl]-amino}-3-[4-(2,3-dimethyl-pyridin-4-yl)-phenyl]-propionic acid] | 7.02 |
| Cc1nccc(-c2ccc(C[C@H](NC(=O)[C@@H]3Cc4cc5c(cc4CN3C(=O)N[C@H](C)c3ccccc3)O[C@@H](c3ccc(OCc4cccc(Cl)c4Cl)cc3)CO5)C(=O)O)cc2)c1C [Example 369, (S)-2-{[(3S,8S)-3-[4-(2,3-Dichloro-benzyloxy)-phenyl]-7-((R)-1-phenyl-ethylcarbamoyl)-2,3,6,7,8,9-hexahydro-[1,4]dioxino[2,3-g]isoquinoline-8-carbonyl]-amino}-3-[4-(2,3-dimethyl-pyridin-4-yl)-phenyl]-propionic acid] | 6.95 |
| Cc1nccc(-c2ccc(C[C@H](NC(=O)[C@@H]3Cc4cc5c(cc4CN3C(=O)N[C@H](C)c3ccccc3)O[C@@H](c3ccc(OCc4cc(Cl)ccc4Cl)cc3)CO5)C(=O)O)cc2)c1C [Example 370, (S)-2-{[(3S,8S)-3-[4-(2,5-Dichloro-benzyloxy)-phenyl]-7-((R)-1-phenyl-ethylcarbamoyl)-2,3,6,7,8,9-hexahydro-[1,4]dioxino[2,3-g]isoquinoline-8-carbonyl]-amino}-3-[4-(2,3-dimethyl-pyridin-4-yl)-phenyl]-propionic acid] | 7.21 |

The next lines start with the values.

| pEC50 | SMILES |
| --- | --- |
| 7.35 | Cc1nc(C(=O)N2Cc3cc4c(cc3C[C@H]2C(=O)N[C@@H](Cc2ccc(-c3ccnc(C)c3C)cc2)C(=O)O)OC[C@H](c2ccc(OCc3c(Cl)cccc3Cl)cc2)O4)c(C)o1 [Example 355, (S)-2-{[(3S,8S)-3-[4-(2,6-Dichloro-benzyloxy)-phenyl]-7-(2,5-dimethyl-oxazole-4-carbonyl)-2,3,6,7,8,9-hexahydro-[1,4]dioxino[2,3-g]isoquinoline-8-carbonyl]-amino}-3-[4-(2,3-dimethyl-pyridin-4-yl)phenyl]-propionic acid] |
| 7.24 | Cc1nc(C(=O)N2Cc3cc4c(cc3C[C@H]2C(=O)N[C@@H](Cc2ccc(-c3ccnc(C)c3C)cc2)C(=O)O)OC[C@H](c2ccc(OCc3cc(F)ccc3F)cc2)O4)c(C)o1 [Example 356, (S)-2-{[(3S,8S)-3-[4-(2,5-Difluoro-benzyloxy)-phenyl]-7-(2,5-dimethyl-oxazole-4-carbonyl)-2,3,6,7,8,9-hexahydro-[1,4]dioxino[2,3-g]isoquinoline-8-carbonyl]-amino}-3-[4-(2,3-dimethyl-pyridin-4-yl)-phenyl]-propionic acid] |
| 6.93 | Cc1nc(C(=O)N2Cc3cc4c(cc3C[C@H]2C(=O)N[C@@H](Cc2ccc(-c3ccnc(C)c3C)cc2)C(=O)O)OC[C@H](c2ccc(OCc3cccc(Cl)c3F)cc2)O4)c(C)o1 [Example 359, (S)-2-{[(3S,8S)-3-[4-(3-Chloro-2-fluoro-benzyloxy)-phenyl]-7-(2,5-dimethyl-oxazole-4-carbonyl)-2,3,6,7,8,9-hexahydro-[1,4]dioxino[2,3-g]isoquinoline-8-carbonyl]-amino}-3-[4-(2,3-dimethyl-pyridin-4-yl)phenyl]-propionic acid] |
| 6.53 | Cc1nc(C(=O)N2Cc3cc4c(cc3C[C@H]2C(=O)N[C@@H](Cc2ccc(-c3ccnc(C)c3C)cc2)C(=O)O)OC[C@H](c2ccc(OCc3c(F)cccc3Cl)cc2)O4)c(C)o1 [Example 360, (S)-2-{[(3S,8S)-3-[4-(2-Chloro-6-fluoro-benzyloxy)-phenyl]-7-(2,5-dimethyl-oxazole-4-carbonyl)-2,3,6,7,8,9-hexahydro-[1,4]dioxino[2,3-g]isoquinoline-8-carbonyl]-amino}-3-[4-(2,3-dimethyl-pyridin-4-yl)phenyl]-propionic acid] |
| 7.05 | Cc1nc(C(=O)N2Cc3cc4c(cc3C[C@H]2C(=O)N[C@@H](Cc2ccc(-c3ccnc(C)c3C)cc2)C(=O)O)OC[C@H](c2ccc(OCc3cccc(Cl)c3Cl)cc2)O4)c(C)o1 [Example 361, (S)-2-{[(3S,8S)-3-[4-(2,3-Dichloro-benzyloxy)-phenyl]-7-(2,5-dimethyl-oxazole-4-carbonyl)-2,3,6,7,8,9-hexahydro-[1,4]dioxino[2,3-g]isoquinoline-8-carbonyl]-amino}-3-[4-(2,3-dimethyl-pyridin-4-yl)phenyl]-propionic acid] |
| 7.92 | Cc1nc(C(=O)N2Cc3cc4c(cc3C[C@H]2C(=O)N[C@@H](Cc2ccc(-c3ccnc(C)c3C)cc2)C(=O)O)OC[C@H](c2ccc(OCc3cc(Cl)ccc3Cl)cc2)O4)c(C)o1 [Example 362, (S)-2-{[(3S,8S)-3-[4-(2,5-Dichloro-benzyloxy)-phenyl]-7-(2,5-dimethyl-oxazole-4-carbonyl)-2,3,6,7,8,9-hexahydro-[1,4]dioxino[2,3-g]isoquinoline-8-carbonyl]-amino}-3-[4-(2,3-dimethyl-pyridin-4-yl)-phenyl]-propionic acid] |
| 7.44 | Cc1nc(C(=O)N2Cc3cc4c(cc3C[C@H]2C(=O)N[C@@H](Cc2ccc(-c3ccnc(C)c3C)cc2)C(=O)O)OC[C@H](c2ccc(OCCc3ccc(Cl)cc3)cc2)O4)c(C)o1 [Example 371, (S)-2-{[(3S,8S)-3-{4-[2-(4-Chloro-phenyl)-ethoxy]-phenyl}-7-(2,5-dimethyl-oxazole-4-carbonyl)-2,3,6,7,8,9-hexahydro-[1,4]dioxino[2,3-g]isoquinoline-8-carbonyl]-amino}-3-[4-(2,3-dimethyl-pyridin-4-yl)-phenyl]-propionic acid] |
